Reference: BindingDB's records for doi:10.1016/j.bioorg.2013.01.001 (University of Wisconsin-Madison, 2013)

The compounds below were run against Vitamin D3 receptor (Rattus norvegicus) (UniProt P13053) (assay: In vitro study, VDR binding assay were performed as previously described.).
Sequence of Vitamin D3 receptor (Rattus norvegicus) (P13053 whole entry, looked up): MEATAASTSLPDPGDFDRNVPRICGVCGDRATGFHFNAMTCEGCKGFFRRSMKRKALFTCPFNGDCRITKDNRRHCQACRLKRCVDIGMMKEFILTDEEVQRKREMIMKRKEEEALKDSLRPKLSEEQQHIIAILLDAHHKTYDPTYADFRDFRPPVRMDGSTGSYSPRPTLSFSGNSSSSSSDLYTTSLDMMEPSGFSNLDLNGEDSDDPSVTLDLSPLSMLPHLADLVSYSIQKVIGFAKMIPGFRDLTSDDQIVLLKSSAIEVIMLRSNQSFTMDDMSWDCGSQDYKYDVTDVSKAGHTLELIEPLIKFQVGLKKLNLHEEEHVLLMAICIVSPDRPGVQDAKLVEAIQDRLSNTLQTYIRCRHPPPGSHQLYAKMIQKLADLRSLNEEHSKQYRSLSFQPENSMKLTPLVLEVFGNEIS

Ki [nM] | SMILES
0.3 | C=C1[C@H](O)CC(=C/C=C2\CCC[C@@]3(C)C2CCC3[C@H](C)CCCC)C[C@H]1O (some centres undefined) [Vitamin D analog, 8]
0.2 | C=C1[C@H](O)CC(=C/C=C2\CCC[C@@]3(C)C2CCC3[C@H](C)CCCCO)C[C@H]1O (some centres undefined) [Vitamin D analog, 6]
0.3 | C=C1[C@H](O)CC(=C/C=C2\CCC[C@@]3(C)C2CCC3[C@@H](C)CCCC)C[C@H]1O (some centres undefined) [Vitamin D analog, 9]
0.3 | C=C1[C@H](O)CC(=C/C=C2\CCC[C@@]3(C)C2CCC3[C@@H](C)CCCCO)C[C@H]1O (some centres undefined) [Vitamin D analog, 7]
